± gives the expanded uncertainty stated by the source.
Experiments:
[1] = Molar enthalpy of transition or fusion; conditions: Crystal; DSC
[2] = Crystal; DTA

Row | Molar enthalpy of transition or fusion [1] | Normal melting temperature [2] | SMILES
1 | 4.97 ± 0.191 kcal/mol | 113.87 ± 1.1 °C | CC(=O)OCCNc1ccc([N+](=O)[O-])cc1 [2-[(4-nitrophenyl)amino]ethanol 1-acetate]
2 | 4.71 ± 0.167 kcal/mol | 53.50 ± 1.1 °C | c1ccc(Nc2ccccc2)cc1 [diphenylamine]
3 | 5.43 ± 0.191 kcal/mol | 95.06 ± 1.1 °C | CCNc1ccc([N+](=O)[O-])cc1 [N-ethyl-4-nitroaniline]

Continued, compound first:

Row | SMILES | Molar enthalpy of transition or fusion [1] | Normal melting temperature [2]
4 | CCN(C(=O)N(CC)c1ccccc1)c1ccccc1 [1,3-diethyl-1,3-diphenylurea] | 8.01 ± 0.215 kcal/mol | 71.87 ± 1.1 °C
5 | CN(C(=O)N(C)c1ccccc1)c1ccccc1 [1,3-dimethyl-1,3-diphenylurea] | 7.91 ± 0.215 kcal/mol | 120.00 ± 1.1 °C

From the NIST ThermoML archive (doi:10.1016/j.tca.2013.04.021)
